# From PubChem BioAssay (NCI)
#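 Abbreviation: GI50, concentration required for 50% inhibition of growth. TGI: total growth inhibition.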
# Columns and labels:
# Test in all cases: NCI anticancer screen, dose series, 384-well format
# [1] = system: OVCAR-4 ovarian
# [2] = system: CCRF-CEM leukemia
# [3] = system: MALME-3M melanoma
# [4] = system: OVCAR-8 ovarian
# [5] = system: DU-145 prostate
# [6] = system: SK-MEL-28 melanoma
# [7] = system: OVCAR-3 ovarian
# [8] = system: HOP-92 NSCLC
# [9] = system: SF-268 CNS
# [10] = system: MOLT-4 leukemia
# [11] = system: NCI/ADR-RES ovarian
# [12] = system: T-47D breast
# [13] = system: MCF7 breast
# [14] = system: SNB-75 CNS
# [15] = system: KM12 colon
# [16] = system: NCI-H23 lung
# [17] = system: A498 renal
# [18] = system: HCT-15 colon
# [19] = system: HT29 colon
# [20] = system: MDA-MB-231 breast
# [21] = system: 786-0 renal
# [22] = system: NCI-H322M lung
# [23] = system: SR leukemia
# [24] = system: M14 melanoma
# [25] = system: BT-549 breast
# [26] = system: PC-3 prostate
# [27] = system: HL-60(TB) leukemia
# [28] = system: HS 578T breast
# [29] = system: MDA-MB-435 melanoma
# [30] = system: RPMI-8226 leukemia
# [31] = system: EKVX NSCLC
# [32] = system: MDA-MB-468 breast
# [33] = system: UO-31 renal
# [34] = system: CAKI-1 renal
# [35] = system: NCI-H522 lung
# [36] = system: ACHN renal
# [37] = system: SNB-19 CNS
# [38] = system: NCI-H460 NSCLC
# [39] = system: TK-10 renal
# [40] = system: NCI-H226 lung
# [41] = system: K-562 leukemia
# [42] = system: LOX IMVI melanoma
# [43] = system: UACC-257 melanoma
# [44] = system: HCC-2998 colon
# [45] = system: SK-MEL-5 melanoma
# [46] = system: U251 glioblastoma
# [47] = system: SN12C renal
# [48] = system: RXF 393 renal
# [49] = system: UACC-62 melanoma
# [50] = system: SF-539 CNS
# [51] = system: HOP-62 NSCLC
# [52] = system: COLO 205 colon
# [53] = system: SF-295 CNS
# [54] = system: SK-OV-3 ovarian
# [55] = system: OVCAR-5 ovarian
# [56] = system: SW-620 colon
# [57] = system: A549 NSCLC
# [58] = system: IGROV1 ovarian
structure (smiles),measurement,setting,value
Cc1c(CN2CCN(C(=O)[C@H](C)O)CC2)sc2c(N3CCOCC3)nc(-c3cnc(N)nc3)nc12,GI50,[1],128 nM
same,TGI,[1],726 nM
same,GI50,[2],361 nM
same,TGI,[2],1920 nM
same,GI50,[3],51 nM
same,TGI,[3],286 nM
same,GI50,[4],333 nM
same,TGI,[4],> 100000 nM
same,GI50,[5],272 nM
same,TGI,[5],4100 nM
same,GI50,[6],154 nM
same,TGI,[6],719 nM
same,GI50,[7],211 nM
same,TGI,[7],1740 nM
same,GI50,[8],84.9 nM
same,TGI,[8],446 nM
same,GI50,[9],386 nM
same,TGI,[9],16600 nM
same,GI50,[10],97.5 nM
same,TGI,[10],282 nM
same,GI50,[11],651 nM
same,TGI,[11],> 100000 nM
same,GI50,[12],25.9 nM
same,TGI,[12],110 nM
same,GI50,[13],48.5 nM
same,TGI,[13],> 100000 nM
same,GI50,[14],143 nM
same,TGI,[14],775 nM
same,GI50,[15],354 nM
same,TGI,[15],6970 nM
same,GI50,[16],179 nM
same,TGI,[16],5800 nM
same,GI50,[17],88.2 nM
same,TGI,[17],473 nM
same,GI50,[18],198 nM
same,TGI,[18],> 100000 nM
same,GI50,[19],246 nM
same,TGI,[19],> 100000 nM
same,GI50,[20],290 nM
same,TGI,[20],> 100000 nM
same,GI50,[21],350 nM
same,TGI,[21],2860 nM
same,GI50,[22],244 nM
same,TGI,[22],6600 nM
same,GI50,[23],176 nM
same,TGI,[23],609 nM
same,GI50,[24],228 nM
same,TGI,[24],3710 nM
same,GI50,[25],197 nM
same,TGI,[25],922 nM
same,GI50,[26],149 nM
same,TGI,[26],2430 nM
same,GI50,[27],121 nM
same,TGI,[27],577 nM
same,GI50,[28],139 nM
same,TGI,[28],419 nM
same,GI50,[29],230 nM
same,TGI,[29],1530 nM
same,GI50,[30],54.4 nM
same,TGI,[30],200 nM
same,GI50,[31],173 nM
same,TGI,[31],1010 nM
same,GI50,[32],97.6 nM
same,TGI,[32],352 nM
same,GI50,[33],295 nM
same,TGI,[33],> 100000 nM
same,GI50,[34],197 nM
same,TGI,[34],2820 nM
same,GI50,[35],208 nM
same,TGI,[35],974 nM
same,GI50,[36],193 nM
same,TGI,[36],1150 nM
same,GI50,[37],2490 nM
same,TGI,[37],> 100000 nM
same,GI50,[38],78.6 nM
same,TGI,[38],> 100000 nM
same,GI50,[39],223 nM
same,TGI,[39],1380 nM
same,GI50,[40],158 nM
same,TGI,[40],784 nM
same,GI50,[41],943 nM
same,TGI,[41],> 100000 nM
same,GI50,[42],239 nM
same,TGI,[42],1130 nM
same,GI50,[43],185 nM
same,TGI,[43],884 nM
same,GI50,[44],404 nM
same,TGI,[44],14700 nM
same,GI50,[45],119 nM
same,TGI,[45],386 nM
same,GI50,[46],1060 nM
same,TGI,[46],> 100000 nM
same,GI50,[47],148 nM
same,TGI,[47],694 nM
same,GI50,[48],352 nM
same,TGI,[48],2330 nM
same,GI50,[49],211 nM
same,TGI,[49],1200 nM
same,GI50,[50],300 nM
same,TGI,[50],3070 nM
same,GI50,[51],292 nM
same,TGI,[51],2920 nM
same,GI50,[52],208 nM
same,TGI,[52],1370 nM
same,GI50,[53],148 nM
same,TGI,[53],695 nM
same,GI50,[54],133 nM
same,TGI,[54],448 nM
same,GI50,[55],137 nM
same,TGI,[55],823 nM
same,GI50,[56],594 nM
same,TGI,[56],> 100000 nM
same,GI50,[57],261 nM
same,TGI,[57],2600 nM
same,GI50,[58],41.6 nM
same,TGI,[58],192 nM
